Data reported in the NIST ThermoML archive (doi:10.1016/j.jct.2012.03.016).
Where “and” joins values, the source holds several entries; their conditions need not be identical. Equal values may be shown once. Numbers after ± are expanded uncertainties.

Legend:
[1] = Liquid, Closed cell (Static) method
[2] = excess molar enthalpy (molar enthalpy of mixing); xn = mol fraction of the nth substance listed; conditions: 303.15 K, 101.3 kPa, Liquid, Calvet calorimetry

CCCCOC [butyl methyl ether]
[1]
Conditions | vapor or sublimation pressure
262.99 K | 3.2 ± 0.1 kPa
263.15 K | 3.194 ± 0.065 kPa
273.04 K | 5.7 ± 0.1 kPa
273.15 K | 5.704 ± 0.12 kPa
283.07 K | 9.6 ± 0.2 kPa
283.15 K | 9.688 ± 0.2 kPa
293.1 K | 15.6 ± 0.3 kPa
293.15 K | 15.74 ± 0.32 kPa
303.12 K | 24.4 ± 0.5 kPa
303.15 K | 24.61 ± 0.5 kPa
313.15 K | 37.17 ± 0.75 kPa
313.16 K | 36.8 ± 0.7 kPa and 36.9 ± 0.7 kPa
323.15 K | 54.46 ± 1.1 kPa
323.2 K | 54 ± 1.1 kPa
333.15 K | 77.64 ± 1.7 kPa
333.25 K | 74.1 ± 1.6 kPa

C=CCCCC [hex-1-ene]
[1]
Conditions | vapor or sublimation pressure [kPa]
263.15 K | 4.46 ± 0.09
263.45 K | 4.5 ± 0.1
273.15 K | 7.716 ± 0.16
273.32 K | 7.7 ± 0.2
283.15 K | 12.71 ± 0.26
283.24 K | 12.8 ± 0.3
293.15 K | 20.08 ± 0.4
293.22 K | 20.1 ± 0.4
303.15 K | 30.54 ± 0.61
303.22 K | 30.6 ± 0.6
313.15 K | 44.96 ± 0.9
313.2 K | 45 ± 0.9
323.15 K | 64.28 ± 1.3
323.19 K | 64.4 ± 1.3
333.15 K | 89.55 ± 1.8
333.23 K | 89.7 ± 1.8

COC(C)(C)C [2-methoxy-2-methylpropane]
[1]
Conditions | vapor or sublimation pressure [kPa]
263.15 K | 6.245 ± 0.13
263.53 K | 6.4 ± 0.1
273.15 K | 10.67 ± 0.22
273.34 K | 10.8 ± 0.2
283.15 K | 17.41 ± 0.35
283.27 K | 17.6 ± 0.4
293.15 K | 27.25 ± 0.55
293.25 K | 27.4 ± 0.6
303.15 K | 41.16 ± 0.83
303.22 K | 41.2 ± 0.8
313.15 K | 60.22 ± 1.2
313.24 K | 60.3 ± 1.2
323.15 K | 85.65 ± 1.7
323.21 K | 85.8 ± 1.7
333.15 K | 118.78 ± 2.4
333.19 K | 119.2 ± 2.4

CCCCOC [butyl methyl ether] + C=CCCCC
[2]
Conditions | excess molar enthalpy [kcal/mol]
x2 = 0.0997 | 0.0055 ± 0.00239
x2 = 0.1966 | 0.011 ± 0.00239
x2 = 0.2897 | 0.0152 ± 0.00239
x2 = 0.3935 | 0.0193 ± 0.00239
x2 = 0.4933 | 0.0214 ± 0.00239
x2 = 0.5922 | 0.0217 ± 0.00239
x2 = 0.694 | 0.0205 ± 0.00239
x2 = 0.7912 | 0.0169 ± 0.00239
x2 = 0.8863 | 0.0105 ± 0.00239

C=CCCCC [hex-1-ene] + COC(C)(C)C
[2]
Conditions | excess molar enthalpy [kcal/mol]
x1 = 0.1491 | 0.0209 ± 0.00239
x1 = 0.2162 | 0.0271 ± 0.00239
x1 = 0.3039 | 0.033 ± 0.00239
x1 = 0.4052 | 0.0369 ± 0.00239
x1 = 0.4892 | 0.0384 ± 0.00239
x1 = 0.6174 | 0.0379 ± 0.00239
x1 = 0.7128 | 0.0343 ± 0.00239
x1 = 0.788 | 0.0295 ± 0.00239
x1 = 0.8837 | 0.0198 ± 0.00239
